According to patent US11667649B2, “Heteroaromatic macrocyclic ether chemotherapeutic agents” (Nuvalent, Inc., priority 2020, dated 2023):

Experiments:
ALK-wt kinase domain = target: T1, ALK-wt kinase domain (Homo sapiens, UniProt Q9UM73); test: Biochemical kinase assay, ALK-wt; details: 2 mM ATP substrate solution, read-out: Ki^app ALK-wt
T1 construct: TRKA-wt (1 nM, BPS Bio, 40280) kinase domains in buffer; purchased Carna 08-518
Protocol: (§1) First, 250 nL of compound dissolved in DMSO (100-fold of the desired concentration) was dispensed into a 384-well plate. A 12.5 μL substrate solution containing ATP (2 mM) and fluorogenic phosphorylation substrate AQT0101 (26 μM for ALK and ROS1, AssayQuant) or AQT0104 (26 μM for TRKA, AssayQuant) in buffer (50 mM HEPES pH 7.5, 0.01% Brij-35, 0.5 mM EGTA, 10 mM MgCl2) was added and mixed thoroughly. Then, a 12.5 μL kinase solution containing ALK-wt (1.5 nM, Carna, 08-518), ALK ALK L1196M/G1202R (3 nM, SignalChem, A19-12NG), ROS1-wt (0.6 nM, Carna, 08-163), ROS1-G2032R (0.5 nM, SignalChem, R14-12BG), or TRKA-wt (1 nM, BPS Bio, 40280) kinase domains in buffer ([…] HEPES pH 7.5, 0.01% Brij-35, 2% glycerol, 0.4 mg/mL BSA, 0.5 mM EGTA, and 10 mM MgCl2) was added and mixed thoroughly. The plate was sealed and read by SpectraMax Paradigm at λ=485 nm every 2 minutes for 120 minutes at 30° C. Initial rates of reaction (v) were calculated from the change in fluorescence intensity over time during the initial, linear portion of the reaction. Finally, apparent inhibitory constants (Ki^app) were determined from regression of v and I (inhibitor concentration) to Morrison Equation (E=enzyme concentration): […]

[1] = target: T2, ALK L1196M/G1202R kinase domain (Homo sapiens, UniProt Q9UM73, G1202R/L1196M); test: Biochemical kinase assay, ALK L1196M/G1202R; details: 2 mM ATP substrate solution, read-out: Ki^app ALK-L1196M-G1202R
T2 construct: TRKA-wt (1 nM, BPS Bio, 40280) kinase domains in buffer; purchased SignalChem A19-12NG
Protocol: as §1

ROS1-wt kinase domain = target: T3, ROS1-wt kinase domain (Homo sapiens, UniProt P08922); test: Biochemical kinase assay, ROS1-wt; details: 2 mM ATP substrate solution, read-out: Ki^app ROS1-wt
T3 construct: TRKA-wt (1 nM, BPS Bio, 40280) kinase domains in buffer; purchased Carna 08-163
Protocol: as §1

[2] = target: T4, ROS1-G2032R kinase domain (Homo sapiens, UniProt P08922, G2032R); test: Biochemical kinase assay, ROS1-G2032R; details: 2 mM ATP substrate solution, read-out: Ki^app ROS1-G2032R
T4 construct: TRKA-wt (1 nM, BPS Bio, 40280) kinase domains in buffer; purchased SignalChem R14-12BG
Protocol: as §1

TRKA-wt kinase domain = target: T5, TRKA-wt kinase domain (Homo sapiens, UniProt P04629); test: Biochemical kinase assay, TRKA-wt; details: 2 mM ATP substrate solution, read-out: Ki^app TRKA-wt
T5 construct: TRKA-wt (1 nM, BPS Bio, 40280) kinase domains in buffer; purchased BPS Bio 40280
Protocol: as §1

SMILES | Ki (ALK-wt kinase domain) [nM] | Ki [1] [nM] | Ki (ROS1-wt kinase domain) [nM] | Ki [2] [nM] | Ki (TRKA-wt kinase domain) [nM]
C[C@H]1Oc2cc(cnc2N)-c2c(cnn2CC(F)F)Cc2cc(C(F)(F)F)nn2-c2ccc(F)cc21 [Compound 84] | < 50 | < 50 | < 50 | < 50 | > 500
C[C@H]1Oc2cc(cnc2N)-c2c(C#N)nn(C)c2Cc2scnc2-c2ccc(F)cc21 [Compound 94] | < 50 | < 50 | < 50 | < 50 | 50 to 500
C[C@H]1Oc2cc(cnc2N)-c2c(C#N)ncn2Cc2cnccc2-c2ccc(F)cc21 [Compound 10] | < 50 | < 50 | < 50 | < 50 | > 500
CCc1nn(CC)c2c1Cc1cn(C)nc1-c1ccc(F)cc1[C@@H](C)Oc1cc-2cnc1N [Compound 158] | < 50 | < 50 | < 50 | < 50 | < 50
CCn1ncc2c1-c1cnc(N)c(c1)O[C@H](C)c1cc(F)ccc1-c1ncc(OC)cc1C2 [Compound 149] | < 50 | < 50 | < 50 | < 50 | < 50
C[C@H]1Oc2cc(cnc2N)-c2c(nn(C)c2CC2CC2)Cc2ccnn2-c2ccc(F)cc21 [Compound 177] | < 50 | < 50 | < 50 | < 50 | 50 to 500
CCn1ncc2c1-c1cnc(N)c(c1)OC(CO)c1cc(F)ccc1-c1nccn1C2 (stereo not shown) [Compound 166] | < 50 | 50 to 500 | < 50 | 50 to 500 | > 500
CCn1nnc2c1-c1cnc(N)c(c1)O[C@H](C)c1cc(F)ccc1-c1nn(C)cc1C2 [Compound 20] | < 50 | < 50 | < 50 | < 50 | 50 to 500
C[C@H]1Oc2cc(cnc2N)-c2c(C#N)nn(C)c2Cc2cc(C(F)F)nn2-c2ccc(F)cc21 [Compound 132] | < 50 | < 50 | < 50 | < 50 | 50 to 500
CC1Oc2cc(cnc2N)-c2c(C#N)ncn2Cc2cnn(C)c2-c2ccc(F)cc21 (stereo not shown) [Compound 167] | < 50 | 50 to 500 | < 50 | 50 to 500 | > 500
C[C@H]1Oc2cc(cnc2N)-c2c(C#N)nn(C)c2Cc2cc(F)cnc2-c2ccc(F)cc21 [Compound 105] | < 50 | < 50 | < 50 | < 50 | > 500
C[C@H]1Oc2cc(cnc2N)-c2c(C#N)ncn2Cc2scnc2-c2ccc(F)cc21 [Compound 64] | < 50 | < 50 | < 50 | < 50 | > 500
CCn1nc(C#N)c2c1-c1cnc(N)c(c1)O[C@H](C)c1cc(F)ccc1-c1nn(C)cc1C2 [Compound 156] | < 50 | < 50 | < 50 | < 50 | 50 to 500
C[C@H]1Oc2cc(cnc2N)-c2c(C#N)cnn2Cc2cn(C)nc2-c2ccc(F)cc21 [Compound 9] | < 50 | < 50 | < 50 | < 50 | > 500
CCn1ncc2c1-c1cnc(N)c(c1)O[C@H](C)c1cc(F)ccc1-c1nocc1C2 [Compound 99] | < 50 | < 50 | < 50 | < 50 | 50 to 500
CCc1snc2c1-c1cnc(N)c(c1)O[C@H](C)c1cc(F)ccc1-c1nn(C)cc1C2 [Compound 88] | < 50 | < 50 | < 50 | < 50 | 50 to 500
CCc1nn(C)c2c1-c1cnc(N)c(c1)OCc1cc(F)ccc1-n1nc(C)cc1C2 [Compound 55] | < 50 | < 50 | < 50 | < 50 | 50 to 500
CCn1ncc2c1-c1cnc(N)c(c1)O[C@H](C)c1cc(F)ccc1-n1ncc(C#N)c1C2 [Compound 47] | < 50 | 50 to 500 | < 50 | < 50 | 50 to 500

SMILES | Ki (ALK-wt kinase domain) [nM] | Ki [1] [nM] | Ki (ROS1-wt kinase domain) [nM] | Ki [2] [nM] | Ki (TRKA-wt kinase domain) [nM]
C[C@H]1Oc2cc(cnc2N)-c2c(C#N)ncn2Cc2ccncc2-c2ccc(F)cc21 [Compound 11] | < 50 | 50 to 500 | < 50 | < 50 | > 500
CCn1ncc2c1-c1cnc(N)c(c1)OC(C)c1cc(F)ccc1-c1ncncc1C2 (stereo not shown) [Compound 42] | < 50 | < 50 | < 50 | < 50 | 50 to 500
C[C@H]1Oc2cc(cnc2N)-c2c(nn(C)c2C#N)Cc2ccnn2-c2ccc(F)cc21 [Compound 169] | < 50 | < 50 | < 50 | < 50 | < 50
CCn1ncc2c1-c1cnc(N)c(c1)OCc1cc(F)ccc1-n1nc(C(F)(F)F)cc1C2 [Compound 92] | < 50 | < 50 | < 50 | < 50 | > 500
C[C@H]1Oc2cc(cnc2N)-c2c(cnn2CC(F)F)Cc2cn(C)nc2-c2ccc(F)cc21 [Compound 22] | < 50 | < 50 | < 50 | < 50 | > 500
CCn1ncc2c1-c1cnc(N)c(n1)OC(C)c1cc(F)ccc1-c1nccn1C2 (stereo not shown) [Compound 163] | < 50 | < 50 | < 50 | < 50 | 50 to 500
C[C@H]1Oc2cc(cnc2N)-c2c(cnn2CC2CC2)Cc2cn(C)nc2-c2ccc(F)cc21 [Compound 121] | < 50 | < 50 | < 50 | < 50 | 50 to 500
CCn1ncc2c1-c1cnc(N)c(c1)O[C@H](C)c1cc(F)ccc1-n1nc(F)cc1C2 [Compound 71] | < 50 | < 50 | < 50 | < 50 | < 50
CCn1nc(C)c2c1-c1cnc(N)c(c1)O[C@H](C)c1cc(F)ccc1-c1nn(C)cc1C2 [Compound 81] | < 50 | < 50 | < 50 | < 50 | 50 to 500
CCc1noc2c1-c1cnc(N)c(n1)O[C@H](C)c1cc(F)ccc1-c1nn(C)cc1C2 [Compound 162] | < 50 | < 50 | < 50 | < 50 | < 50
C[C@H]1Oc2cc(cnc2N)-c2c(CC3CC3)nn(C)c2Cc2cn(C)nc2-c2ccc(F)cc21 [Compound 178] | < 50 | < 50 | < 50 | < 50 | 50 to 500
C[C@H]1Oc2cc(cnc2N)-c2c(C#N)ncn2Cc2cccnc2-c2ccc(F)cc21 [Compound 12] | < 50 | < 50 | < 50 | < 50 | > 500
CCn1nc(C(C)C)c2c1-c1cnc(N)c(c1)O[C@H](C)c1cc(F)ccc1-c1nn(C)cc1C2 [Compound 153] | < 50 | < 50 | < 50 | < 50 | < 50
CCn1ncc2c1-c1cnc(N)c(c1)O[C@H](C)c1cc(F)ccc1-c1nccn1C2 [Compound 31] | < 50 | < 50 | < 50 | < 50 | < 50
CCn1nc(Cl)c2c1-c1cnc(N)c(c1)O[C@H](C)c1cc(F)ccc1-c1nn(C)cc1C2 [Compound 73] | < 50 | < 50 | < 50 | < 50 | 50 to 500
Cc1nc2c(s1)Cc1c(c(C#N)nn1C)-c1cnc(N)c(c1)O[C@H](C)c1cc(F)ccc1-2 [Compound 82] | < 50 | < 50 | < 50 | < 50 | 50 to 500
CCn1ncc2c1-c1cnc(N)c(c1)O[C@H](C)c1cc(F)ccc1-c1nn(C)c(OC)c1C2 [Compound 157] | < 50 | < 50 | < 50 | < 50 | < 50
